Source: ChEMBL document CHEMBL1201862, “PubChem BioAssay data set” (2004)
Active and inactive are the calls of the source. Cut-off read from the data, not from the text of the source: actives have a measured IC50 and inactives only a lower limit.

Molecular target: Envelope glycoprotein gp160 (Human immunodeficiency virus 1, UniProt Q6QLK5)
Experiment: cell-free HIV fusion peptide-binding blockers – biochemical, uHTS, fluorescence dequenching, […] (AID 1986)

Chain of Envelope glycoprotein gp160 (Q6QLK5 whole entry, the tested form may be a part): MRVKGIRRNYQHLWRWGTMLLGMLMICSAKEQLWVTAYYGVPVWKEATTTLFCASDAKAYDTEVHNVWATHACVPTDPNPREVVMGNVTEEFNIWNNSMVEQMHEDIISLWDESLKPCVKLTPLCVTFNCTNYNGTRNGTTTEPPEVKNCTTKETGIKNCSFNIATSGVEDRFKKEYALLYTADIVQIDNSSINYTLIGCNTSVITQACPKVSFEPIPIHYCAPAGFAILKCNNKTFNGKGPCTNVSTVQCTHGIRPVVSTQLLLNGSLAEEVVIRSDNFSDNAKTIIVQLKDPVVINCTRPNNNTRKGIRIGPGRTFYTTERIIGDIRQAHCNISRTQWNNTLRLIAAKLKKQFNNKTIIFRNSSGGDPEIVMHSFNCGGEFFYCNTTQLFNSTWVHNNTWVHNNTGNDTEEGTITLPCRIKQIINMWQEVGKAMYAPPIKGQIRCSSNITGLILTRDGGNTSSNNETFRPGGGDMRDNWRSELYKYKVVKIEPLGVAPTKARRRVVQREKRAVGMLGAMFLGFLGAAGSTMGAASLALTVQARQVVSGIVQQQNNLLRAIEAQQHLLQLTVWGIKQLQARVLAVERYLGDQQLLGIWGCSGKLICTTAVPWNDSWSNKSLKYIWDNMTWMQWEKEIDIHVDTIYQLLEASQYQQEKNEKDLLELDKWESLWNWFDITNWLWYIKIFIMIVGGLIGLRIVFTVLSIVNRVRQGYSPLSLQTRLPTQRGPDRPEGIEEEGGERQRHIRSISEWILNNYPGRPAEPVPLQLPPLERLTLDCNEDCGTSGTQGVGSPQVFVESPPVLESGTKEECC

Row | Structure (SMILES) | IC50
1 | COc1cc(/C=C2\C(=N)N3N=C(S(C)(=O)=O)SC3=NC2=O)cc(OC)c1OCCOc1ccccc1C | 14.6 µM (active)
2 | Cc1ccc(-n2cccc2/C=C2/C(=N)N3C(=NC2=O)SN=C3S(C)(=O)=O)cc1Cl | 6.32 µM (active)
3 | O=C1NN(c2ccc(Cl)c(Cl)c2)C(=O)/C1=C/c1ccc(-c2ccccc2C(=O)O)o1 | 15.7 µM (active)
4 | O=C(O)c1cccc(NC(=S)N/N=C/c2ccccc2OCc2cccc(Br)c2)c1 | 13.2 µM (active)
